Article PMC3346935 (2012)
Residues, ends and D or L forms follow the SMILES beside them.

Experiments:
[1] = tested on: RNA 7 (RNA, aptamer) GGCAAGUACUCUGACGCAGAUGGAAGUACCUUUGAACUGGGGGAGAAUGGUUAUGAGAAUCUAGCGAAGCCGGAGGUGCGUAGAGGAGGACAGCG; test: isocratic affinity elution from His–Phe–Sepharose; details: 600 mM NaCl, 5 mM MgCl2, 5 mM CaCl2; 50 mM HEPES pH 7.0
[2] = tested on: RNA 8 (RNA, aptamer) GGCAAGUACUCUGACGCAGUGGAAGUUAUGUGUAUGCGGUAGAUAGGUAACGUUCUGUCAUAGGAAGGUACUAUCGUGCGUAGAGGAGGACAGCG; test: isocratic affinity elution from His–Phe–Sepharose; details: 600 mM NaCl, 5 mM MgCl2, 5 mM CaCl2; 50 mM HEPES pH 7.0
[3] = tested on: RNA 25 (RNA, aptamer) GGCAAGUACUCUGACGCCGAAGCCAGCCGGCGAUUGGGAACGACGGAAUUCCUCACUUCUGUUAAAGGUCAACCAGGGCGUAGAGGAGGACAGCG; test: isocratic affinity elution from His–Phe–Sepharose; details: 600 mM NaCl, 5 mM MgCl2, 5 mM CaCl2; 50 mM HEPES pH 7.0
[4] = tested on: RNA 40 (RNA, aptamer) GGCAAGUACUCUGACGCAAGGGUAGAUAUGCGUAUAUGCAGAUCCCAAAUAAAGGACGAAUUUAGUACGGGGGGUGUGCGUAGAGGAGGACAGCG; test: isocratic affinity elution from His–Phe–Sepharose; details: 600 mM NaCl, 5 mM MgCl2, 5 mM CaCl2; 50 mM HEPES pH 7.0
[5] = tested on: RNA 44 (RNA, aptamer) GGCAAGUACUCUGACGCUAGGCAGCGGCGAGGGAAGUUGGAGCUUAGACCAGUUAGGAGCUGGAGACCAGGCAGUCGGCGUAGAGGAGGACAGCG; test: affinity column elution; details: 600 mM NaCl, 5 mM MgCl2, 5 mM CaCl2; 50 mM HEPES pH 7.0
[6] = tested on: RNA 6 (RNA, aptamer) GGCAAGUACUCUGACGCCGGUGGCGCAGACAGAUUUCCAGUAUGGCACGGACCGGAGAGGGAAGGAUGACAGACGUGGCGUAGAGGAGGACAGCG; test: elution from His–Phe–Sepharose by free ligand; details: 600 mM NaCl, 5 mM MgCl2, 5 mM CaCl2; 50 mM HEPES pH 7.0; 1.5 mM dipeptide
[7] = tested on: RNA 11 (RNA, aptamer) GGCAAGUACUCUGACGCGAGGGUGGAUACGUGUAUGCGGUUACAUCUGUGGUUUCUAAAAGAGCAAGCCGAUGUGGCGUAGAGGAGGACAGCG; test: elution from His–Phe–Sepharose by free ligand; details: 600 mM NaCl, 5 mM MgCl2, 5 mM CaCl2; 50 mM HEPES pH 7.0; 1.5 mM dipeptide
[8] = tested on: RNA 12 (RNA, aptamer) GGCAAGUACUCUGACGCGUGCUGCGGGCCGUUCAUAGUGGACGGGGUAGACAGAGAACCUUAGACCAAGGUAUCGGCGCGUAGAGGAGGACAGCG; test: elution from His–Phe–Sepharose by free ligand; details: 600 mM NaCl, 5 mM MgCl2, 5 mM CaCl2; 50 mM HEPES pH 7.0; 1.5 mM dipeptide
[9] = tested on: RNA 13 (RNA, aptamer) GGCAAGUACUCUGACGCCUGAUGUGAUGGCCUUGGUCGAAGCGGGAUCCGACAGCUACUAUAGAGGUGUUGUCGAGGGCGUAGAGGAGGACAGCG; test: elution from His–Phe–Sepharose by free ligand; details: 600 mM NaCl, 5 mM MgCl2, 5 mM CaCl2; 50 mM HEPES pH 7.0; 1.5 mM dipeptide
[10] = tested on: RNA 20 (RNA, aptamer) GGCAAGUACUCUGACGCGGAUGGGCCACAACGGAUCAGACGACAGGCAUUCUUUGAAGGAAAGAUCCCAGCAGAGCGGCGUAGAGGAGGACAGCG; test: elution from His–Phe–Sepharose by free ligand; details: 600 mM NaCl, 5 mM MgCl2, 5 mM CaCl2; 50 mM HEPES pH 7.0; 1.5 mM dipeptide
[11] = tested on: RNA 22 (RNA, aptamer) GGCAAGUACUCUGACGCGAAAUGUACAUGGCGUUAAAGUAGACGCAGGAUUAAGUGUGCUGUGGAGUCGAAACGCGGGCGUAGAGGAGGACAGCG; test: elution from His–Phe–Sepharose by free ligand; details: 600 mM NaCl, 5 mM MgCl2, 5 mM CaCl2; 50 mM HEPES pH 7.0; 1.5 mM dipeptide
[12] = tested on: RNA 23 (RNA, aptamer) GGCAAGUACUCUGACGCGGAUGGGCCAACGGCGAGCGUCGAAGGAGCUUAGUACCGAAGCAACGCAAGCGUAGAGCGGCGUAGAGGAGGACAGCG; test: elution from His–Phe–Sepharose by free ligand; details: 600 mM NaCl, 5 mM MgCl2, 5 mM CaCl2; 50 mM HEPES pH 7.0; 1.5 mM dipeptide
[13] = tested on: RNA 24 (RNA, aptamer) GGCAAGUACUCUGACGCCCUGAGAGCGUAAUGUGACGGACAGUCGCACUGGAGGAGGAGGAAGUGAUGCAUCGAUCGGCGUAGAGGAGGACAGCG; test: elution from His–Phe–Sepharose by free ligand; details: 600 mM NaCl, 5 mM MgCl2, 5 mM CaCl2; 50 mM HEPES pH 7.0; 1.5 mM dipeptide
[14] = tested on: RNA 33 (RNA, aptamer) GGCAAGUACUCUGACGCGCCGAAAUGGGAGGGGUGGCGUUAACCGGCAAAGCUGCACGGGCGAUGAAGAAACGCGGGGCGUAGAGGAGGACAGCG; test: elution from His–Phe–Sepharose by free ligand; details: 600 mM NaCl, 5 mM MgCl2, 5 mM CaCl2; 50 mM HEPES pH 7.0; 1.5 mM dipeptide
[15] = tested on: RNA 35 (RNA, aptamer) GGCAAGUACUCUGACGCGUGGGAAGAUACGUGUAUACGCUAACAUACGGCAAGGUGAGUAGCCGGAAGUAGCAUGUGGCGUAGAGGAGGACAGCG; test: elution from His–Phe–Sepharose by free ligand; details: 600 mM NaCl, 5 mM MgCl2, 5 mM CaCl2; 50 mM HEPES pH 7.0; 1.5 mM dipeptide
[16] = tested on: RNA 39 (RNA, aptamer) GGCAAGUACUCUGACGCGGAUGGGCCACCAAAGCACCGAAGGGUAGGAGCCACUAACUUGCGGUGAAUGGAAGAGCGGCGUAGAGGAGGACAGCG; test: elution from His–Phe–Sepharose by free ligand; details: 600 mM NaCl, 5 mM MgCl2, 5 mM CaCl2; 50 mM HEPES pH 7.0; 1.5 mM dipeptide

Question: `N[C@@H](Cc1c[nH]cn1)C(=O)NCC(=O)O` (H-His-Gly-OH) was tested. Which “K D” value [1] did it give?
Answer: The value was 10.5 mM.

Question: What about the “K D” value [2] of the same molecule?
Answer: Its value is 5.4 mM.

Question: What about the “K D” value [3] of the same molecule?
Answer: Its value is 8.2 mM.

Question: What about the “K D” value [4] of the same molecule?
Answer: The value was 3.4 mM.

Question: How did the binding [5] turn out when `N[C@@H](Cc1cnc[nH]1)C(=O)N[C@@H](Cc1ccccc1)C(=O)O` (H-His-Phe-OH) was run?
Answer: Its binding is “yes”.

Question: And the binding [6]?
Answer: Its binding is “yes”.

Question: And the binding [7]?
Answer: Its binding is “yes”.

Question: What about the binding [8] of the same molecule?
Answer: Its binding is “yes”.

Question: What about the binding [9] of the same molecule?
Answer: Its binding is “yes”.

Question: And the binding [10]?
Answer: Its binding is “yes”.

Question: And the binding [11]?
Answer: Its binding is “yes”.

Question: What about the binding [12] of the same molecule?
Answer: Its binding is “yes”.

Question: What about the binding [13] of the same molecule?
Answer: Its binding is “yes”.

Question: What about the binding [14] of the same molecule?
Answer: Its binding is “yes”.

Question: What about the binding [15] of the same molecule?
Answer: The binding was “yes”.

Question: And the binding [16]?
Answer: The binding was “yes”.

Question: And the “K D” value [1]?
Answer: Its value is 0.478 ± 0.061 mM.

Question: And the “K D” value [2]?
Answer: The value was 0.102 ± 0.033 mM.

Question: And the “K D” value [3]?
Answer: The value was 0.036 ± 0.002 mM.

Question: And the “K D” value [4]?
Answer: The value was 0.077 ± 0.007 mM.

Question: What does the source list for `NCC(=O)N[C@@H](Cc1ccccc1)C(=O)O` (H-Gly-Phe-OH)?
Answer: K D [1]: 31.6 mM; K D [2]: > 34 mM; K D [3]: > 727 mM; K D [4]: 9.3 mM

Question: For `N[C@@H](Cc1cnc[nH]1)C(=O)O`, which binding [5] is on record?
Answer: Its binding is “no”.

Question: And the “K D” value [1]?
Answer: The value was greater than 119 mM.

Question: What about the “K D” value [2] of the same molecule?
Answer: The value was greater than 34 mM.

Question: What about the “K D” value [3] of the same molecule?
Answer: Its value is greater than 727 mM.

Question: What about the “K D” value [4] of the same molecule?
Answer: Its value is greater than 227 mM.

Question: `N[C@@H](Cc1ccccc1)C(=O)O` was tested. Which binding [5] did it give?
Answer: Its binding is “yes”.

Question: And the “K D” value [1]?
Answer: The value was 22 mM.

Question: What about the “K D” value [2] of the same molecule?
Answer: The value was greater than 34 mM.

Question: What about the “K D” value [3] of the same molecule?
Answer: The value was greater than 727 mM.

Question: What about the “K D” value [4] of the same molecule?
Answer: The value was greater than 227 mM.
